Experiment [1] addresses Bcl-2 WT (Homo sapiens, UniProt P10415). The experiment is described as follows: Bcl-2 WT inhibition, fluorescence polarization (Flu-BIM tracer) binding assay. The note with it: FP; 20 nM Bcl2, 5 nM Flu-BIM, 1 h incubation; read-out: Bcl-2 w.t. (FP). In general terms: Fluorescence polarisation rises when a labelled molecule tumbles more slowly, as on binding a larger partner.

In experiment [2] the test system is MV-4-11 cells. Kind of experiment: CCK-8 cell viability assay in MV-4-11 cells. Format: cell-based. To be noted: Homo sapiens, MV4-11, 72 h, 10% FBS, 3 days. The gist of the method: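 MV-4-11 cells (20000/well) were exposed to serially diluted compound for 3 days at 37 °C. Viability was then measured with CCK-8 (1–4 h, absorbance 450 nm). IC50 was derived from readings normalized to vehicle.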

The subject of experiment [3] is RS4; 11Bcl-2-G101V cells. Kind of experiment: CellTiter-Glo (CTG) cell viability assay in RS4;11-Bcl-2-G101V cells. The class given is cell-based. To be noted: 72 h, 10% FBS, 3 days. In a few lines: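 Engineered RS4;11 lines carrying Bcl-2 mutants, 10000 cells/well in RPMI-1640 with 10% FBS, exposed to serially diluted compound for 3 days at 37 °C, 5% CO2. Viability read by CellTiter-Glo luminescence, normalized to vehicle; IC50 calculated.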
In general terms: In ATP-based viability assays light output follows the ATP content of the culture.

Drawing on patent US12577245B2, “Sulfonyl benzamide derivatives as Bcl-2 inhibitors” (ASCENTAGE PHARMA (SUZHOU) CO., LTD., priority 2021, dated 2026), this text covers IC50 for 13 compounds.

pIC50: −log10 of the molar value.

Sequence of Bcl-2 WT (P10415 whole entry): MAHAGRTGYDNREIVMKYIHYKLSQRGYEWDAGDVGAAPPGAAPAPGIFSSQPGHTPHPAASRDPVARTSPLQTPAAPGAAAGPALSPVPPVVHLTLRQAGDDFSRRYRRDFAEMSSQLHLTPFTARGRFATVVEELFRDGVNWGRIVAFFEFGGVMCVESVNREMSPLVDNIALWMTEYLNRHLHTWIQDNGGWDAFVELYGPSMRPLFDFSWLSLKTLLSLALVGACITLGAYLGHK

With `CC1(C)CCC(CN2CCN(c3ccc(C(=O)NS(=O)(=O)c4ccc(NC[C@H]5CC[C@](C)(O)CC5)c([N+](=O)[O-])c4)c(Oc4cnc5[nH]ccc5c4)c3)CC2)=C(c2cc(-c3ccc(F)c(F)c3)cs2)C1` [Example 51, 2-((1H-pyrrolo[2,3-b]pyridin-5-yl)oxy)-4-(4-((2-(4-(3,4-difluorophenyl)thiophen-2-yl)-4,4-dimethylcyclohex-1-en-1-yl)methyl)piperazin-1-yl)-N-((4-((((1r,4r)-4-hydroxy-4-methylcyclohexyl)methyl)amino)-3-nitrophenyl)sulfonyl)benzamide], the figures for the pIC50 in experiment [1], in experiment [2] and in experiment [3] were 7.45, 7.28 and 5.94, respectively.

With `CC1(C)CCC(CN2CCN(c3ccc(C(=O)NS(=O)(=O)c4ccc(NC[C@H]5CC[C@](C)(O)CC5)c([N+](=O)[O-])c4)c(Oc4cnc5[nH]ccc5c4)c3)CC2)=C(c2cc(-c3cc(F)c(F)cc3F)cs2)C1` [Example 53, 2-((1H-pyrrolo[2,3-b]pyridin-5-yl)oxy)-4-(4-((4,4-dimethyl-2-(4-(2,4,5-trifluorophenyl)thiophen-2-yl)cyclohex-1-en-1-yl)methyl)piperazin-1-yl)-N-((4-((((1r,4r)-4-hydroxy-4-methylcyclohexyl)methyl)amino)-3-nitrophenyl)sulfonyl)benzamide], the results for the pIC50 in experiment [1], in experiment [2] and in experiment [3] were 7.56, 8.05 and 6.37, respectively.

Consider `CC1(C)CCC(CN2CCN(c3ccc(C(=O)NS(=O)(=O)c4ccc(NC[C@H]5CC[C@](C)(O)CC5)c([N+](=O)[O-])c4)c(Oc4cnc5[nH]ccc5c4)c3)CC2)=C(c2cc(-c3c(F)ccc(F)c3F)cs2)C1` [Example 54, 2-((1H-pyrrolo[2,3-b]pyridin-5-yl)oxy)-4-(4-((4,4-dimethyl-2-(4-(2,3,6-trifluorophenyl)thiophen-2-yl)cyclohex-1-en-1-yl)methyl)piperazin-1-yl)-N-((4-((((1r,4r)-4-hydroxy-4-methylcyclohexyl)methyl)amino)-3-nitrophenyl)sulfonyl)benzamide], for which the pIC50 in experiment [1] is 7.64; in experiment [2], 8.15; in experiment [3], 6.57.

Turning to `CC1(C)CCC(CN2CCN(c3ccc(C(=O)NS(=O)(=O)c4ccc(NC[C@H]5CC[C@](C)(O)CC5)c([N+](=O)[O-])c4)c(Oc4cnc5[nH]ccc5c4)c3)CC2)=C(c2cc(-c3cc(F)cc(C#N)c3)cs2)C1` [Example 55, 2-((1H-pyrrolo[2,3-b]pyridin-5-yl)oxy)-4-(4-((2-(4-(3-cyano-5-fluorophenyl)thiophen-2-yl)-4,4-dimethylcyclohex-1-en-1-yl)methyl)piperazin-1-yl)-N-((4-((((1r,4r)-4-hydroxy-4-methylcyclohexyl)methyl)amino)-3-nitrophenyl)sulfonyl)benzamide], the pIC50 in experiment [1] was 7.51; in experiment [2] it was 7.14; in experiment [3], 5.94.

Regarding `CC1(C)CCC(CN2CCN(c3ccc(C(=O)NS(=O)(=O)c4ccc(NC[C@H]5CC[C@](C)(O)CC5)c([N+](=O)[O-])c4)c(Oc4cnc5[nH]ccc5c4)c3)CC2)=C(c2cc(-c3ccc(C(C)(C)C#N)cc3)cs2)C1` [Example 56, 2-((1H-pyrrolo[2,3-b]pyridin-5-yl)oxy)-4-(4-((2-(4-(4-(2-cyanopropan-2-yl)phenyl)thiophen-2-yl)-4,4-dimethylcyclohex-1-en-1-yl)methyl)piperazin-1-yl)-N-((4-((((1r,4r)-4-hydroxy-4-methylcyclohexyl)methyl)amino)-3-nitrophenyl)sulfonyl)benzamide], the pIC50 is 7.79 in experiment [1], 7.17 in experiment [2] and 5.72 in experiment [3].

Turning to `CN(C)c1ccccc1-c1csc(C2=C(CN3CCN(c4ccc(C(=O)NS(=O)(=O)c5ccc(NC[C@H]6COCCO6)c([N+](=O)[O-])c5)c(Oc5cnc6[nH]ccc6c5)c4)CC3)CCC(C)(C)C2)c1` [Example 58, (S)—N-((4-(((1,4-dioxan-2-yl)methyl)amino)-3-nitrophenyl)sulfonyl)-2-((1H-pyrrolo[2,3-b]pyridin-5-yl)oxy)-4-(4-((2-(4-(2-(dimethylamino)phenyl)thiophen-2-yl)-4,4-dimethylcyclohex-1-en-1-yl)methyl)piperazin-1-yl)benzamide], the values for the pIC50 in experiment [1], in experiment [2] and in experiment [3] were 7.70, 6.75 and 5.52, respectively.

`CC1(C)CCC(CN2CCN(c3ccc(C(=O)NS(=O)(=O)c4ccc(NC[C@H]5CC[C@](C)(O)CC5)c([N+](=O)[O-])c4)c(Oc4cnc5[nH]ccc5c4)c3)CC2)=C(c2cc(-c3ccc(C(C)(C)O)cc3)cs2)C1` [Example 59, 2-((1H-pyrrolo[2,3-b]pyridin-5-yl)oxy)-N-((4-((((1r,4r)-4-hydroxy-4-methylcyclohexyl)methyl)amino)-3-nitrophenyl)sulfonyl)-4-(4-((2-(4-(4-(2-hydroxypropan-2-yl)phenyl)thiophen-2-yl)-4,4-dimethylcyclohex-1-en-1-yl)methyl)piperazin-1-yl)benzamide]: the pIC50 in experiment [1] is 7.53; in experiment [2] it was 8.70; in experiment [3], 6.54.

`CC1(C)CCC(CN2CCN(c3ccc(C(=O)NS(=O)(=O)c4ccc(NC[C@H]5CC[C@](C)(O)CC5)c([N+](=O)[O-])c4)c(Oc4cnc5[nH]ccc5c4)c3)CC2)=C(c2cc(-c3ccc(C(O)(C(F)(F)F)C(F)(F)F)cc3)cs2)C1` [Example 60, 2-((1H-pyrrolo[2,3-b]pyridin-5-yl)oxy)-4-(4-((2-(4-(4-(1,1,1,3,3,3-hexafluoro-2-hydroxypropan-2-yl)phenyl)thiophen-2-yl)-4,4-dimethylcyclohex-1-en-1-yl)methyl)piperazin-1-yl)-N-((4-((((1r,4r)-4-hydroxy-4-methylcyclohexyl)methyl)amino)-3-nitrophenyl)sulfonyl)benzamide]: the pIC50 in experiment [1] was 7.69; in experiment [2] it was 6.52; in experiment [3], 5.47.

As for `CC1(C)CCC(CN2CCN(c3ccc(C(=O)NS(=O)(=O)c4ccc(NC[C@H]5CC[C@](C)(O)CC5)c([N+](=O)[O-])c4)c(Oc4cnc5[nH]ccc5c4)c3)CC2)=C(c2cc(-c3ccc(C(C)(C)O)cc3F)cs2)C1` [Example 62, 2-((1H-pyrrolo[2,3-b]pyridin-5-yl)oxy)-4-(4-((2-(4-(2-fluoro-4-(2-hydroxypropan-2-yl)phenyl)thiophen-2-yl)-4,4-dimethylcyclohex-1-en-1-yl)methyl)piperazin-1-yl)-N-((4-((((1r,4r)-4-hydroxy-4-methylcyclohexyl)methyl)amino)-3-nitrophenyl)sulfonyl)benzamide], the pIC50 in experiment [1] is 7.80; in experiment [2], 8.40; in experiment [3], 6.85.

For `CC1(C)CCC(CN2CCN(c3ccc(C(=O)NS(=O)(=O)c4ccc(NC[C@H]5COCCO5)c([N+](=O)[O-])c4)c(Oc4cnc5[nH]ccc5c4)c3)CC2)=C(c2cc(-c3c(F)cc(C(C)(C)O)cc3F)cs2)C1` [Example 64, (S)—N-((4-(((1,4-dioxan-2-yl)methyl)amino)-3-nitrophenyl)sulfonyl)-2-((1H-pyrrolo[2,3-b]pyridin-5-yl)oxy)-4-(4-((2-(4-(2,6-difluoro-4-(2-hydroxypropan-2-yl)phenyl)thiophen-2-yl)-4,4-dimethylcyclohex-1-en-1-yl)methyl)piperazin-1-yl)benzamide], the pIC50 in experiment [1] was 7.78; in experiment [2], 8.15; in experiment [3], 7.52.

Consider `CCC(O)(CC)c1cc(F)c(-c2csc(C3=C(CN4CCN(c5ccc(C(=O)NS(=O)(=O)c6ccc(NC[C@H]7CC[C@](C)(O)CC7)c([N+](=O)[O-])c6)c(Oc6cnc7[nH]ccc7c6)c5)CC4)CCC(C)(C)C3)c2)c(F)c1` [Example 67, 2-((1H-pyrrolo[2,3-b]pyridin-5-yl)oxy)-4-(4-((2-(4-(2,6-difluoro-4-(3-hydroxypentan-3-yl)phenyl)thiophen-2-yl)-4,4-dimethylcyclohex-1-en-1-yl)methyl)piperazin-1-yl)-N-((4-((((1r,4r)-4-hydroxy-4-methylcyclohexyl)methyl)amino)-3-nitrophenyl)sulfonyl)benzamide], for which the pIC50 in experiment [1] was 7.56; in experiment [2], 6.60; in experiment [3], 6.08.

For `[2H]C([2H])([2H])C(O)(c1cc(F)c(-c2csc(C3=C(CN4CCN(c5ccc(C(=O)NS(=O)(=O)c6ccc(NC[C@H]7CC[C@](C)(O)CC7)c([N+](=O)[O-])c6)c(Oc6cnc7[nH]ccc7c6)c5)CC4)CCC(C)(C)C3)c2)c(F)c1)C([2H])([2H])[2H]` [Example 68, 2-((1H-pyrrolo[2,3-b]pyridin-5-yl)oxy)-4-(4-((2-(4-(2,6-difluoro-4-(2-hydroxypropan-2-yl-1,1,1,3,3,3-d6)phenyl)thiophen-2-yl)-4,4-dimethylcyclohex-1-en-1-yl)methyl)piperazin-1-yl)-N-((4-((((1r,4r)-4-hydroxy-4-methylcyclohexyl)methyl)amino)-3-nitrophenyl)sulfonyl)benzamide], the pIC50 in experiment [1] is 7.63; in experiment [2], 8.05; in experiment [3], 7.68.

For the compound `CC1(C)CCC(CN2CCN(c3ccc(C(=O)NS(=O)(=O)c4ccc(NC[C@H]5CC[C@](C)(O)CC5)c([N+](=O)[O-])c4)c(Oc4cnc5[nH]ccc5c4)c3)CC2)=C(c2cc(-c3c(F)cc(C(C)(O)C4CC4)cc3F)cs2)C1` (stereo partly drawn) [Example 69, 2-((1H-pyrrolo[2,3-b]pyridin-5-yl)oxy)-4-(4-((2-(4-(4-(1-cyclopropyl-1-hydroxyethyl)-2,6-difluorophenyl)thiophen-2-yl)-4,4-dimethylcyclohex-1-en-1-yl)methyl)piperazin-1-yl)-N-((4-((((1r,4r)-4-hydroxy-4-methylcyclohexyl)methyl)amino)-3-nitrophenyl)sulfonyl)benzamide], the results for the pIC50 in experiment [1], in experiment [2] and in experiment [3] were 7.61, 6.33 and 6.52, respectively.
